Among the targets are GluN1/GluN2A (Rattus norvegicus, UniProt P35439+Q00959); GluN1/GluN2D (Rattus norvegicus, UniProt P35439+Q62645); GluN1/GluN2B (Rattus norvegicus, UniProt P35439+Q00960).
The target of assay [1] is T1, GluN1/GluN2C (Rattus norvegicus, UniProt P35439+Q00961).
Assay [2] addresses T1, GluN1/GluN2C. Nature of the assay: cell-based.

One may read the EC50 as the concentration needed to bring the measured effect to its halfway point.

GluN1/GluN2A, sequence (Q00959 23-1464, other chains not shown): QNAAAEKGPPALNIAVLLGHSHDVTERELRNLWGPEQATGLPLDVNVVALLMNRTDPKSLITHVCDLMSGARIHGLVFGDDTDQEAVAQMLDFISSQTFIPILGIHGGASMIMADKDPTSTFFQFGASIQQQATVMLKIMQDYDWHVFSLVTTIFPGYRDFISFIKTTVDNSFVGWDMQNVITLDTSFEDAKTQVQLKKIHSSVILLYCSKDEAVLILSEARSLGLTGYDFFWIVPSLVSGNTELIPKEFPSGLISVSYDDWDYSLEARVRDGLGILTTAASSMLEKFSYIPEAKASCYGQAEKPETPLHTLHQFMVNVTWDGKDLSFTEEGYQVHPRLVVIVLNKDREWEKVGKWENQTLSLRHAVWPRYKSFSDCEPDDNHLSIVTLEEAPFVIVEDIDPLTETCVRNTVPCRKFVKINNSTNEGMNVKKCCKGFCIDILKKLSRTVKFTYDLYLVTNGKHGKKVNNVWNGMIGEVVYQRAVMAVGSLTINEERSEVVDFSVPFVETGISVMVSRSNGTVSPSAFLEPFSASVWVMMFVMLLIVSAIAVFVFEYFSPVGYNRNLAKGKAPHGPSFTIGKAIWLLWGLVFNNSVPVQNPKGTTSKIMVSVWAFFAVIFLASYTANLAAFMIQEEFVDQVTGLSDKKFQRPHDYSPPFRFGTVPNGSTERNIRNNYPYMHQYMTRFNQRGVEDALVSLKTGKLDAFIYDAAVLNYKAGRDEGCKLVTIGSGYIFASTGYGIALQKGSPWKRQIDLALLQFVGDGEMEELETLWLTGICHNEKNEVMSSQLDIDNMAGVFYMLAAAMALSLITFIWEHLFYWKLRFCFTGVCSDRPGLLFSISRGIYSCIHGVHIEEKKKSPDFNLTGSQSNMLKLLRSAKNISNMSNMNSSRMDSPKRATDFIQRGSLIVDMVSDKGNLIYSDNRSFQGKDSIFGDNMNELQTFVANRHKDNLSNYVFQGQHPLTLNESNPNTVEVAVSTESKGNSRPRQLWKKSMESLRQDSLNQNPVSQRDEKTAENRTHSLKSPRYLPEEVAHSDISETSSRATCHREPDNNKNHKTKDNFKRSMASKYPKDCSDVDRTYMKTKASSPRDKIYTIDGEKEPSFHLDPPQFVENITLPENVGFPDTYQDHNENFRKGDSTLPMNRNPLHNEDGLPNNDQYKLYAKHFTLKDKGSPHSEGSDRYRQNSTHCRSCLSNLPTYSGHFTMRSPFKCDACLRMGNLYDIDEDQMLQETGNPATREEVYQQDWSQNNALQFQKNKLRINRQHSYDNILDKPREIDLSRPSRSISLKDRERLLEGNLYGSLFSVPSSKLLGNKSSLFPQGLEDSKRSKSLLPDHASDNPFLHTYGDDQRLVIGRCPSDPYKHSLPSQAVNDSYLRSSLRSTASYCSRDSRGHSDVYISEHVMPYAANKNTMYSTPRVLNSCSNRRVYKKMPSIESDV
GluN1/GluN2D, sequence (Q62645 28-1323, other chains not shown): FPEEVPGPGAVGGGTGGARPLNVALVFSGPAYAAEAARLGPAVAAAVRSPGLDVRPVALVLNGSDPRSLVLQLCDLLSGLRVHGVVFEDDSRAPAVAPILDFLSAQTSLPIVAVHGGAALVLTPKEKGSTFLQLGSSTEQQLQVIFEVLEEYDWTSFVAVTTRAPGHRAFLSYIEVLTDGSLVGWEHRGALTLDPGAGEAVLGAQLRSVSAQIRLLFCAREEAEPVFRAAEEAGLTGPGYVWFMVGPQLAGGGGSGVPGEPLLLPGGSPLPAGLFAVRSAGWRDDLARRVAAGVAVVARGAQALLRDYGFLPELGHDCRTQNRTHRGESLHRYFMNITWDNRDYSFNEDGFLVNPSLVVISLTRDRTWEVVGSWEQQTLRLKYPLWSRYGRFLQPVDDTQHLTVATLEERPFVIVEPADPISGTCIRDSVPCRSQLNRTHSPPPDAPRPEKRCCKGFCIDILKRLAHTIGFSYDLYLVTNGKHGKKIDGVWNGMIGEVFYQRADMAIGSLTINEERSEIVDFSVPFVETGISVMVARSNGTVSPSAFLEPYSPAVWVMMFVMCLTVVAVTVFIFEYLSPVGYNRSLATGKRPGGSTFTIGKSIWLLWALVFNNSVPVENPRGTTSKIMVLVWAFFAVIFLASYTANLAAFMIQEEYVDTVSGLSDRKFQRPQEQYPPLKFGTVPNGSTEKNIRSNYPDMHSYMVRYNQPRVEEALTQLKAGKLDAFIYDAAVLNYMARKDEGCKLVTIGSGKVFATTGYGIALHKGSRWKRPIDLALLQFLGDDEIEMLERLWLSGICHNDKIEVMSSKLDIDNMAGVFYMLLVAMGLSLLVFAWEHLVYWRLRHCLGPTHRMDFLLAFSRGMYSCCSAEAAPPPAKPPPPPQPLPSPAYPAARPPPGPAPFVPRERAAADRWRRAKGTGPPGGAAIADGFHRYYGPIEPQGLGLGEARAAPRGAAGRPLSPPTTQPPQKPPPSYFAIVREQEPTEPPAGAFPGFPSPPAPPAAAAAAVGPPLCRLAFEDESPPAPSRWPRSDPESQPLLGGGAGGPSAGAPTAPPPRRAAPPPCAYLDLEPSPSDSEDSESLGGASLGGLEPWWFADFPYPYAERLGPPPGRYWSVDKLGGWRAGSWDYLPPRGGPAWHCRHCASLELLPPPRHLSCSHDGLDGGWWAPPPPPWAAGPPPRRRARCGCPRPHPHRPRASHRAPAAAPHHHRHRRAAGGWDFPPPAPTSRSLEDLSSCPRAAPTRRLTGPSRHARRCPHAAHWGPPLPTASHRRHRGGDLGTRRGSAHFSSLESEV
GluN1/GluN2B, sequence (Q00960 27-1482, other chains not shown): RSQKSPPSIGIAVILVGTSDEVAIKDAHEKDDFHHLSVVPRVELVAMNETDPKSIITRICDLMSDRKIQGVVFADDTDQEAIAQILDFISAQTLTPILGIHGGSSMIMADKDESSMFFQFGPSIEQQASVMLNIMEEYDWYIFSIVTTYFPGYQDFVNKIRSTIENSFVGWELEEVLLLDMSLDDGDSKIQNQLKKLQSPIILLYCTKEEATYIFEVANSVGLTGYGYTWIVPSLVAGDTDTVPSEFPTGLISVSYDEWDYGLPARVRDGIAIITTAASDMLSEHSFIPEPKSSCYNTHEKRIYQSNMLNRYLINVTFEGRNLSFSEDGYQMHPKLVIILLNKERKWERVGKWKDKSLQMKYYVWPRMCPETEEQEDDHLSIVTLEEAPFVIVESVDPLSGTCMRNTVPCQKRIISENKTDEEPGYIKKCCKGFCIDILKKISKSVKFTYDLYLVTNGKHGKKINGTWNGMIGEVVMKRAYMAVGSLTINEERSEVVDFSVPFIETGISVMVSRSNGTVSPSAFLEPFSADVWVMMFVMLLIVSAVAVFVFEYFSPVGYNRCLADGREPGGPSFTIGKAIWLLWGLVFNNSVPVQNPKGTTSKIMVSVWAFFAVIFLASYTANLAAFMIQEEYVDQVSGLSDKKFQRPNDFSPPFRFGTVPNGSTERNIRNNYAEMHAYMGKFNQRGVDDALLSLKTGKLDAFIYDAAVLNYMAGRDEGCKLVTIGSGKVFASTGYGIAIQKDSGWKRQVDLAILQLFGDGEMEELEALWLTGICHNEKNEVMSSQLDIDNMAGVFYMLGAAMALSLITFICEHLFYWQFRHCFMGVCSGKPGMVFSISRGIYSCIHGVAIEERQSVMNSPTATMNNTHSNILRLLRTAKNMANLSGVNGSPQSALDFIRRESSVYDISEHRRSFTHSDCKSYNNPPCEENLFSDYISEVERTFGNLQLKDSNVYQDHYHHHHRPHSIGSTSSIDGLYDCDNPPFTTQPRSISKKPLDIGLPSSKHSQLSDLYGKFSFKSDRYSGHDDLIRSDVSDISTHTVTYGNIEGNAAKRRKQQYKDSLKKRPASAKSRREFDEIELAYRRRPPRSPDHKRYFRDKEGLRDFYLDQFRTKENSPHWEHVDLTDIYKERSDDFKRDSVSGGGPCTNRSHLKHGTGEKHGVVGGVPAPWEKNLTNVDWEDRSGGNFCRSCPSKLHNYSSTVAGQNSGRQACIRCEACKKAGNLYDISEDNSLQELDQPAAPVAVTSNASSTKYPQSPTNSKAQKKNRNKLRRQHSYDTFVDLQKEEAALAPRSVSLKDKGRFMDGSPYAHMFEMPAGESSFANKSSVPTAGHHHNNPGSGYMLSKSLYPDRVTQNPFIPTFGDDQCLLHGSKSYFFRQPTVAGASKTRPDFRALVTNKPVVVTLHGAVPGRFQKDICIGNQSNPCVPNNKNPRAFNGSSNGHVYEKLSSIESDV

Consider `CC(=O)C1=C(O)C(=O)N(CCc2c[nH]c3ccccc23)C1c1ccc(C(=O)OC(C)C)cc1` (centres unmarked) [Compound 85, Isopropyl 4-(1-(2-(1H-Indol-3-yl)ethyl)-3-acetyl-4-hydroxy-5-oxo-2,5-dihydro-1H-pyrrol-2-yl)benzoate], for which the “activity at GluN2C-containing receptors” value at GluN1/GluN2C [1] was “inactivity”.
Same read-out and setting: then `COC(=O)c1ccc(C2C(C(C)=O)=C(N)C(=O)N2CCc2c[nH]c3ccccc23)cc1` (centres unmarked) [Compound 157, Methyl 4-(1-(2-(1H-Indol-3-yl)ethyl)-3-acetyl-4-amino-5-oxo-2,5-dihydro-1H-pyrrol-2-yl)benzoate], with “complete loss of potentiation”.
Take `COC(=O)c1ccc(C2C(C(C)=O)=C(O)C(=O)N2CCc2c(C)[nH]c3ccccc23)cc1` (centres unmarked) [Compound 106b]: the “activity at GluN2C-containing receptors” value at GluN1/GluN2C [1] is listed as “no activity”. In addition, the “activity at GluN2A-containing receptors” value on GluN1/GluN2A is “inactive”. Besides, the “activity at GluN2D-containing receptors” value on GluN1/GluN2D is “inactive”. In addition, the “activity at GluN2B-containing receptors” value on GluN1/GluN2B was “inactive”.
With “Methyl 4-(4-Hydroxy-1-(2-(1-methyl-1H-Indol-3-yl)ethyl)-3-nicotinoyl-5-oxo-2,5-dihydro-1H-pyrrol-2-yl)benzoate [Compound 105]”, the “activity at GluN2C-containing receptors” value on GluN1/GluN2C [1] was “inactivity”.
Still for that read-out and setting: the value for `COC(=O)c1ccc(C2C(C(=O)c3ccncc3)=C(O)C(=O)N2CCc2c[nH]cn2)cc1` (centres unmarked) [Compound 165, Methyl 4-(1-(2-(1H-Imidazol-4-yl)ethyl)-4-hydroxy-3-isonicotinoyl-5-oxo-2,5-dihydro-1H-pyrrol-2-yl)benzoate] was “complete inactivity”.
The compound `COC(=O)c1ccc(C2C(C(C)=O)=C(O)C(=O)N2CCc2c(C)[nH]c3ccccc23)cc1` (centres unmarked) [Compound 106a] displayed a concentration for a half-maximal effect (EC50) at GluN1/GluN2C [2] of 18 ± 0.6 µM. The “activity at GluN2A-containing receptors” value at GluN1/GluN2A was “no effect”. Also, the “activity at GluN2D-containing receptors” value on GluN1/GluN2D is recorded as “weak inhibition”. The “activity at GluN2B-containing receptors” value on GluN1/GluN2B is recorded as “no effect”.
As to `COC(=O)c1ccc(C2C(C(=O)c3ccncc3)=C(O)C(=O)N2Cc2c[nH]c3ccccc23)cc1` (centres unmarked) [Compound 121, Methyl 4-(1-((1H-Indol-3-yl)methyl)-4-hydroxy-3-isonicotinoyl-5-oxo-2,5-dihydro-1H-pyrrol-2-yl)benzoate], on GluN1/GluN2C [1], the “activity at GluN2C-containing receptors” value is recorded as “eliminated all activity”.
On the same count and under the same terms, the value for `COC(=O)c1ccc(C2C(C(=O)c3cccnc3)=C(O)C(=O)N2CCCc2c[nH]c3ccccc23)cc1` (centres unmarked) [Compound 122, Methyl 4-(1-(3-(1H-Indol-3-yl)propyl)-4-hydroxy-3-nicotinoyl-5-oxo-2,5-dihydro-1H-pyrrol-2-yl)benzoate] was “eliminated all activity”; that for `NS(=O)(=O)c1ccc(C2C(C(=O)c3cccnc3)=C(O)C(=O)N2CCc2c[nH]c3ccccc23)cc1` (centres unmarked) [Compound 92, 4-(1-(2-(1H-Indol-3-yl)ethyl)-4-hydroxy-3-nicotinoyl-5-oxo-2,5,-dihydro-1H-pyrrol-2-yl)benzenesulfonamide] was “none of these analogues exhibited any activity”.
Same read-out and setting: the value for `N#Cc1ccc(C2C(C(=O)c3cccnc3)=C(O)C(=O)N2CCc2c[nH]c3ccccc23)cc1` (centres unmarked) [Compound 87, 4-(1-(2-(1H-Indol-3-yl)ethyl)-4-hydroxy-3-nicotinoyl-5-oxo-2,5-dihydro-1H-pyrrol-2-yl)benzonitrile] was “none of these analogues exhibited any activity”.
Regarding `COC(=O)c1ccccc1C1C(C(C)=O)=C(O)C(=O)N1CCc1c[nH]c2ccccc12` (centres unmarked) [Compound 82, Methyl 2-(1-(2-(1H-Indol-3-yl)ethyl)-3-acetyl-4-hydroxy-5-oxo-2,5-dihydro-1H-pyrrol-2-yl)benzoate], at GluN1/GluN2C [1], the “activity at GluN2C-containing receptors” value is “inactive”.
Take `COC(=O)c1ccc(C2C(C(=O)c3ccncc3)=C(O)C(=O)N2CCc2cccc3ccccc23)cc1` (centres unmarked) [Compound 162, Methyl 4-(4-Hydroxy-3-isonicotinoyl-1-(2-(naphthalen-1-yl)ethyl)-5-oxo-2,5-dihydro-1H-pyrrol-2-yl)benzoate]: the “activity at GluN2C-containing receptors” value at GluN1/GluN2C [1] is listed as “strong inhibition”. Further, the “activity at GluN2A-containing receptors” value on GluN1/GluN2A is listed as “strong inhibition”. Also, the “activity at GluN2D-containing receptors” value at GluN1/GluN2D is reported as “strong inhibition”. Also, the “activity at GluN2B-containing receptors” value on GluN1/GluN2B is “strong inhibition”.
Take `COC(=O)c1ccc(C2C(C(=O)c3ccccn3)=C(O)C(=O)N2CCc2c[nH]c3ccccc23)cc1` (centres unmarked) [Compound 71, Methyl 4-(1-(2-(1H-Indol-3-yl)ethyl)-4-hydroxy-5-oxo-3-picolinoyl-2,5-dihydro-1H-pyrrol-2-yl)benzoate]: the “activity at GluN2C-containing receptors” value at GluN1/GluN2C [1] was “inactive”. Moreover, at GluN1/GluN2A, the “activity at GluN2A-containing receptors” value is “inactive”. For the same compound, the “activity at GluN2D-containing receptors” value on GluN1/GluN2D is “inactive”. Besides, the “activity at GluN2B-containing receptors” value on GluN1/GluN2B was “inactive”.
In the case of `COC(=O)c1ccc(C2C(C(=O)C(C)C)=C(O)C(=O)N2CCc2c[nH]c3ccccc23)cc1` (centres unmarked) [Compound 63, Methyl 4-(1-(2-(1H-Indol-3-yl)ethyl)-4-hydroxy-3-isobutyryl-5-oxo-2,5-dihydro-1H-pyrrol-2-yl)benzoate], the remaining activity at 100 µM on GluN1/GluN2C [2] (read-out: GluN1/GluN2C response to 100 μM of test compound, % of control) is > 140%.
Regarding `COC(=O)c1ccc(C2C(C(=O)c3ccncc3)=C(O)C(=O)N2CCn2cnc3ccccc32)cc1` (centres unmarked) [Compound 164, Methyl 4-(1-(2-(1H-Benzo[d]imidazol-1-yl)ethyl)-4-hydroxy-3-isonicotinoyl-5-oxo-2,5-dihydro-1H-pyrrol-2-yl)benzoate], the “activity at GluN2C-containing receptors” value at GluN1/GluN2C [1] is “complete inactivity”.
As to `CC(=O)C1=C(O)C(=O)N(CCc2c[nH]c3ccccc23)C1c1ccc(C(=O)OC(C)(C)C)cc1` (centres unmarked) [Compound 86, tert-Butyl 4-(1-(2-(1H-Indol-3-yl)ethyl)-3-acetyl-4-hydroxy-5-oxo-2,5-dihydro-1H-pyrrol-2-yl) benzoate], at GluN1/GluN2C [1], the “activity at GluN2C-containing receptors” value was “inactivity”.
For the compound `COC(=O)c1cccc(C2C(C(C)=O)=C(O)C(=O)N2CCc2c[nH]c3ccccc23)c1` (centres unmarked) [Compound 81], the “activity at GluN2C-containing receptors” value on GluN1/GluN2C [1] is “inactive”.
For `CNS(=O)(=O)c1ccc(C2C(C(=O)c3cccnc3)=C(O)C(=O)N2CCc2c[nH]c3ccccc23)cc1` (centres unmarked) [Compound 93, 4-(1-(2-(1H-Indol-3-yl)ethyl)-4-hydroxy-3-nicotinoyl-5-oxo-2,5-dihydro-3-nicotinoyl-5-oxo-2,5-dihydro-1H-pyrrol-2-yl)-N-methylbenzenesulfonamide], at GluN1/GluN2C [1], the “activity at GluN2C-containing receptors” value is listed as “none of these analogues exhibited any activity”.
In the case of `CC(=O)C1=C(O)C(=O)N(CCc2c[nH]c3ccccc23)C1c1ccc([N+](=O)[O-])cc1` (centres unmarked) [Compound 88, 1-(2-(1H-Indol-3-yl)ethyl)-4-acetyl-3-hydroxy-5-(4-nitrophenyl)-1H-pyrrol-2(5H)-one], the “activity at GluN2C-containing receptors” value on GluN1/GluN2C [1] is “none of these analogues exhibited any activity”.
Turning to `COC(=O)c1ccc(C2C(C(C)=O)=C(OC(C)=O)C(=O)N2CCc2c[nH]c3ccccc23)cc1` (centres unmarked) [Compound 158, Methyl 4-(1-(2-(1H-Indol-3-yl)ethyl)-4-acetoxy-3-acetyl-5-oxo-2,5-dihydro-1H-pyrrol-2-yl)benzoate], the decrease in potency at GluN1/GluN2C [1] (GluN1/GluN2C EC50) is reported as 2 fold.
For the compound `COC(=O)c1ccc(C2C(C(C)=O)=C(O)C(=O)N2CCc2c[nH]c3ccccc23)cc1` (centres unmarked) [Compound 1, Methyl 4-(1-(2-(1H-Indol-3-yl)ethyl)-3-acetyl-4-hydroxy-5-oxo-2,5-dihydro-1H-pyrrol-2-yl)benzoate], the “agonist activity on its own” value at GluN1/GluN2C [1] (in the absence of glutamate and glycine) is “no agonist activity”. The “activity at GluN2A-containing receptors” value on GluN1/GluN2A is “did not show any activity”. The “activity at GluN2D-containing receptors” value on GluN1/GluN2D is given as “did not show any activity”. Further, the “activity at GluN2B-containing receptors” value on GluN1/GluN2B is “did not show any activity”.
As to `COC(=O)c1ccc(C2C(C(=O)c3cccnc3)=C(O)C(=O)N2CCc2coc3ccccc23)cc1` (centres unmarked) [Compound 163, Methyl 4-(1-(2-(Benzofuran-3-yl)ethyl)-4-hydroxy-3-nicotinoyl-5-oxo-2,5-dihydro-1H-pyrrol-2-yl)benzoate], on GluN1/GluN2C [1], the “activity at GluN2C-containing receptors” value is given as “weak activity”.
As to `CCOC(=O)c1ccc(C2C(C(C)=O)=C(O)C(=O)N2CCc2c(C)[nH]c3ccccc23)cc1` (centres unmarked) [Compound 119, Ethyl 4-(3-Acetyl-4-hydroxy-1-(2-(2-methyl-1H-indol-3-yl)ethyl)-5-oxo-2,5-dihydro-1H-pyrrol-2-yl)benzoate], the potency enhancement at GluN1/GluN2C [1] (GluN1/GluN2C EC50) is given as 2 fold.
